{
  "source": "patent US8188141B2",
  "about": "“Isomigrastatin analogs in the treatment of cancer” (Sloan-Kettering Institute for Cancer Research, priority 2004, dated 2012)",
  "key": {"[1]": {"test_system": "Ovcar3 ovarian cancer cells", "assay": "Chamber cell migration (transwell) assay", "format": "cell-based, human", "conditions": "for IC50: OVCAR-3; for inhibiting the migration of human ovarian cancer cells in the transwell assay: Ovcar3", "protocol": "Cell migrations of Ovcar3 ovarian cancer cells were assayed with 8 μm of microporous 6.5-mm transwell plates (Corning). 100 wl of 5×10^4 cells in serum-free RPMI1640 medium containing 0.5% BSA were added to the upper chamber and 600 μl of medium with 10% fetal bovine serum was added to the lower chamber. Transwells were incubated for 12 hours with following concentrations of chemical compounds in both upper and lower chambers (1 nM, 10 nM, 100 nM 1 μM, 10 μM). Cells on the inside of the transwell inserts were removed with a cotton swab, and cells on the under side of the insert were fixed and stained. Photographs of three random regions were taken and the number of cells was counted to calculate the average number of cells that had transmigrated. Data shown is the average of at least three experiments."}, "[2]": {"test_system": "Ovcar3 tumor cells", "assay": "Wound healing assay", "format": "cell-based, human", "conditions": "250 nM", "protocol": "The tumor cells (Ovcar3) were seeded into 24-multiwell plates (Becton-Dickinson) and cultivated until the cells formed a confluent monolayer. Wounds were set by horizontally scratching the monolayer with a sterile pipette tip. The cells were thereafter washed twice with Phosphate Buffered Saline (PBS) to remove detached cells. Growth media was then added containing 250 nM of the chemical compounds (21, 22, and 30) and incubated at 37° C. The cells were photographed at the beginning of the experiment and after 24 to assess the progression of cell migration into the wound."}, "[3]": {"test_system": "human ovarian tumor cell line OVCAR3", "assay": "In vivo metastatic model (ovarian xenograph, luciferase tumor imaging)", "set-up": "species or system mouse", "conditions": "treated mice", "source_text": "The human ovarian tumor cell line OVCAR3 was transduced with a triple fusion gene HSV-TK/eGFP/FLuc, expressing thymidine kinase, enhanced green fluorescence protein and firefly luciferase. Whole animal imaging by luciferase bioluminescence (FIG. 5A), allowed identification and quantification of disseminated tumor. We quantified the tumor burden in each organ, by sacrificing the mouse shortly after luciferin injecting and imaging of the dissected organs (lung, liver and spleen) (FIG. 5B). In all instances tumor engraftment was initiated with 1−5×10^7 cells and the recipients received 3 Gy irradiation 10 days before tumor engraftment. These tumor cells generated bulky omental metastases with diffuse microscopic peritoneal carcinomatosis causing ascites (FIG. 5A) with, significant pleural effusion and liver, lung and paraaortic metastases (FIG. 6)."}, "[4]": {"assay": "Stability in mice plasma", "format": "in vitro ADME"}, "[5]": {"test_system": "human tumor cells", "conditions": "Nakae et al., J. Antibiot., 2001; cited from earlier work"}, "[6]": {"test_system": "human tumor cells", "conditions": "Nakae et al., J. Antibiot., 2001; cited from earlier work", "remark": "listed apart in the source"}, "[7]": {"conditions": "Homo sapiens, Ovcar3 cells, 12 hours, read-out: IC50, transwell assay"}, "[8]": {"conditions": "after 12h, human ovarian cancer cells, read-out: concentration at which 50% of the migration was inhibited in the transwell assay"}},
  "note": "Where two headings read alike, the source gives them in different places.",
  "data": [
    {"smiles": "CO[C@H]1[C@H](C)/C=C(/C)COCCCCC/C=C/[C@@H]1OC", "note": "[compound 62]", "values": [
      {"measurement": "IC50", "setting": "[1]; [7]", "value": 180, "unit": "nM"}
    ]},
    {"smiles": "CO[C@H]1/C=C/CC/C=C/COC[C@@H](C)[C@@H]1O", "note": "[Compound 30]", "values": [
      {"measurement": "closure of the scar in the wound healing assay", "setting": "[2]", "value": "inhibited the closure of the scar"},
      {"measurement": "tumor metastasis, Luciferase tumor imaging", "setting": "[3]", "value": "significant inhibition of tumor metastasis"},
      {"measurement": "IC50", "setting": "[1]; [7]", "value": "27 ± 5.8", "unit": "nM"},
      {"measurement": "IC50", "setting": "[1]; [8]", "value": 27, "unit": "nM"},
      {"measurement": "inhibiting the migration of human ovarian cancer cells in the transwell assay", "setting": "[1]", "value": "highly potent"}
    ]},
    {"smiles": "COCO[C@H]1[C@H](C)COC(=O)CCCC/C=C/[C@@H]1OC", "note": "[Compound 21]", "values": [
      {"measurement": "closure of the scar in the wound healing assay", "setting": "[2]", "value": "inhibited the closure of the scar"},
      {"measurement": "IC50", "setting": "[1]; [7]", "value": "75 ± 6.5", "unit": "nM"},
      {"measurement": "IC50", "setting": "[1]; [8]", "value": 75, "unit": "nM"},
      {"measurement": "inhibiting the migration of human ovarian cancer cells in the transwell assay", "setting": "[1]", "value": "highly potent"}
    ]},
    {"smiles": "CO[C@H]1/C=C/CC/C=C/COC/C(C)=C\\[C@@H](C)[C@@H]1O", "note": "[compound 57]", "values": [
      {"measurement": "IC50", "setting": "[1]; [7]", "value": 180, "unit": "nM"}
    ]},
    {"smiles": "CO[C@H]1/C=C/CCCCC(=O)OC[C@@H](C)[C@@H]1O", "note": "[Compound 22]", "values": [
      {"measurement": "IC50", "setting": "[1]; [7]", "value": "738 ± 267", "unit": "nM"}
    ]},
    {"smiles": "CO[C@H]1/C=C/CCCCCOC/C(C)=C\\[C@@H](C)[C@@H]1O", "note": "[compound 61]", "values": [
      {"measurement": "stability in mice plasma", "setting": "[4]", "value": "stable"}
    ]},
    {"smiles": "CO[C@H]1/C=C/CC/C=C/C(=O)O[C@H]([C@H](C)C(=O)CCCC2CC(=O)NC(=O)C2)/C(C)=C\\[C@@H](C)[C@@H]1O", "note": "[Migrastatin]", "values": [
      {"measurement": "migration of human tumor cells", "setting": "[5]", "value": "inhibit"},
      {"measurement": "anchorage-independent growth of human tumor cells", "setting": "[6]", "value": "inhibit"}
    ]}
  ]
}
